# Reference: patent US20250332170A1, “VANDETANIB REDUCES INFLAMMATORY CYTOKINES AND AMELIORATES COVID-19” (Collaborations Pharmaceuticals, Inc., priority 2021, published 2025)
# Entries after “also recorded” stand apart in the source; their conditions may differ. Where two headings read alike, the source gives them in different places.
# Assays:
# [1] = system: murine hepatitis virus (MHV); assay: microbe, parasite or virus in culture; type: cell-based
# [2] = system: SARS-CoV-2 (isolate USA WA1/2020)
# VEGF = details: by day 28, severe COVID-19; cited from earlier work
# Chain of VEGF (P15692 207-311 limits assumed): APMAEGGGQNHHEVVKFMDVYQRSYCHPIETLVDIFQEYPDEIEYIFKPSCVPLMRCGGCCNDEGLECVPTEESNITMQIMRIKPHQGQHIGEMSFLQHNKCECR
# SARS-CoV-2 [3] = assay: microbe, parasite or virus in culture; type: cell-based; details: Severe acute respiratory syndrome coronavirus 2, A549-ACE2
# HCoV 229E = HCoV 229E antiviral assay in Huh-7 cells; type: cell-based, human coronavirus 229E; details: 5 μM
# [4] = in vivo; cited from earlier work
# [5] = Cytotoxicity in Caco-2 cells (CC50); type: cell-based; details: human
# SARS-CoV-2 [6] = system: SARS-CoV-2; design: species or system K18-hACE2 mice; details: mouse, in vivo
molecule,measurement,setting,value
CNC(=O)c1ccc(Nc2ncc(C(F)(F)F)c(NCc3nccnc3N(C)S(C)(=O)=O)n2)cc1 [Defactinib],inhibition at 10 µM,"[1]; Murine coronavirus, DBT cells",36%
COc1cc(N2CCC(N3CCN(C)CC3)CC2)ccc1Nc1ncc(Cl)c(Nc2ccccc2P(C)(C)=O)n1 [Brigatinib],inhibition at 10 µM,"[1]; Murine coronavirus, DBT cells",39%
CC[C@H](Nc1ncnc2nc[nH]c12)c1nc2cccc(F)c2c(=O)n1-c1ccccc1 [Idelalisib],inhibition at 10 µM,"[1]; Murine coronavirus, DBT cells",17%
COc1cc2nccc(Oc3ccc(NC(=O)NC4CC4)c(Cl)c3)c2cc1C(N)=O [Lonvatinib],inhibition at 10 µM,"[1]; Murine coronavirus, DBT cells",-12%
Cc1ccc(NC(=O)c2ccc(CN3CCN(C)CC3)cc2)cc1Nc1nccc(-c2cccnc2)n1 [Imatinib],inhibition at 10 µM,"[1]; Murine coronavirus, DBT cells",81%
Crizotinib,% Inhibition MHV-DBT cells 10 μM,[1],96%
same,Calu-3 result (toxicity),[2],toxic
Cc1nc(Nc2ncc(C(=O)Nc3c(C)cccc3Cl)s2)cc(N2CCN(CCO)CC2)n1 [Dasatinib],inhibition at 10 µM,"[1]; Murine coronavirus, DBT cells",65%
CC(=O)Nc1cccc(-n2c(=O)n(C3CC3)c(=O)c3c(Nc4ccc(I)cc4F)n(C)c(=O)c(C)c32)c1 [Trametinib],inhibition at 10 µM,"[1]; Murine coronavirus, DBT cells",-40%
O=C(c1ccc(F)c(F)c1Nc1ccc(I)cc1F)N1CC(O)([C@@H]2CCCCN2)C1 [Cobimetinib],inhibition at 10 µM,"[1]; Murine coronavirus, DBT cells",82%
CNC(=O)c1cc(Oc2ccc(NC(=O)Nc3ccc(Cl)c(C(F)(F)F)c3)cc2)ccn1 [Sorafenib],inhibition at 10 µM,"[1]; Murine coronavirus, DBT cells",74%
CC(C)(C)c1nc(-c2cccc(NS(=O)(=O)c3c(F)cccc3F)c2F)c(-c2ccnc(N)n2)s1 [Dabrafenib],inhibition at 10 µM,"[1]; Murine coronavirus, DBT cells",-12%
C[C@@H]1CCN(C(=O)CC#N)C[C@@H]1N(C)c1ncnc2[nH]ccc12 [Tofacitinib],inhibition at 10 µM,"[1]; Murine coronavirus, DBT cells",-7%
CN(C)C(=O)c1cc2cnc(Nc3ccc(N4CCNCC4)cn3)nc2n1C1CCCC1 [Ribociclib],inhibition at 10 µM,"[1]; Murine coronavirus, DBT cells",-4%
Cc1cc(Nc2ncc(Cl)c(Nc3ccccc3S(=O)(=O)C(C)C)n2)c(OC(C)C)cc1C1CCNCC1 [Ceritinib],inhibition at 10 µM,"[1]; Murine coronavirus, DBT cells",94%
Cc1cccc(-c2nn3c(c2-c2ccnc4ccc(C(N)=O)cc24)CCC3)n1 [Galunisertib],inhibition at 10 µM,"[1]; Murine coronavirus, DBT cells",26%
bevacizumab,Patients discharged,VEGF,65%
same,Patients with improvement in oxygen-support status,VEGF,92%
same,Patients with worsened oxygen-support status or died,VEGF,none
CS(=O)(=O)CCNCc1ccc(-c2ccc3ncnc(Nc4ccc(OCc5cccc(F)c5)c(Cl)c4)c3c2)o1 [Lapatinib],inhibition at 10 µM,"[1]; Murine coronavirus, DBT cells",88%
CCc1cc2c(cc1N1CCC(N3CCOCC3)CC1)C(C)(C)c1[nH]c3cc(C#N)ccc3c1C2=O [Alectinib],inhibition at 10 µM,"[1]; Murine coronavirus, DBT cells",62%
C[C@]1(O)C[C@@H](c2nc(-c3ccc4ccc(-c5ccccc5)nc4c3)c3c(N)nccn32)C1 [Linsitinib],inhibition at 10 µM,"[1]; Murine coronavirus, DBT cells",46%
COC(=O)c1ccc2c(c1)NC(=O)/C2=C(\Nc1ccc(N(C)C(=O)CN2CCN(C)CC2)cc1)c1ccccc1 [Nintedanib],inhibition at 10 µM,"[1]; Murine coronavirus, DBT cells",95%
Alisertib,% Inhibition MHV-DBT cells 10 μM,[1],19%
CCC(CC)COC(=O)[C@H](C)N[P@](=O)(OC[C@H]1O[C@@](C#N)(c2ccc3c(N)ncnn23)[C@H](O)[C@@H]1O)Oc1ccccc1 [remdesivir],IC50,SARS-CoV-2 [3],110 nM
C=CC(=O)N1CCC[C@@H](n2nc(-c3ccc(Oc4ccccc4)cc3)c3c(N)ncnc32)C1 [Ibrutinib],inhibition at 10 µM,"[1]; Murine coronavirus, DBT cells",-69%
Cc1ccc(C(=O)Nc2ccc(CN3CCN(C)CC3)c(C(F)(F)F)c2)cc1C#Cc1cnc2cccnn12 [Ponatinib],inhibition at 10 µM,"[1]; Murine coronavirus, DBT cells",98%
CCCS(=O)(=O)Nc1ccc(F)c(C(=O)c2c[nH]c3ncc(-c4ccc(Cl)cc4)cc23)c1F [Vemourafenib],inhibition at 10 µM,"[1]; Murine coronavirus, DBT cells",-3%
COc1cc2c(Nc3ccc(Br)cc3F)ncnc2cc1OCC1CCN(C)CC1 [Vandetanib],inhibition at 10 µM,"[1]; Murine coronavirus, DBT cells",97%
same,IC50,"[1]; Murine coronavirus, DBT cells, FIG. 5, read-out: IC50 against MHV",1600 nM
same,Reduction of HCoV-229E titer,HCoV 229E,> 3
same,Absorption from the gut,[4],well absorbed
same,Average half-life,[4],19 days
same,Excreted via the feces,[4],44%
same,Excreted via the urine,[4],25%
same,Protein-bound,[4],92-94%
same,Terminal excretion half-life,[4],20 days
same,Time to peak blood plasma concentrations,[4],4 to 10 h
same,CC50,[5],4100 nM
same,Lung CCL2 level,SARS-CoV-2 [6],significantly reduced; also recorded: decreased
same,Lung CCL3 level,SARS-CoV-2 [6],significantly reduced; also recorded: decreased
same,Lung CCL4 level,SARS-CoV-2 [6],reduced; also recorded: decreased
same,Lung IL-6 level,SARS-CoV-2 [6],statistically significantly reduced
same,Lung IL-10 level,SARS-CoV-2 [6],statistically significantly reduced
same,Lung TNF-α level,SARS-CoV-2 [6],statistically significantly reduced
same,Lung pathology / inflammatory cell infiltrates,SARS-CoV-2 [6],mitigated inflammatory cell infiltrates
same,"Lung viral load (viral RNA, RT-PCR)",SARS-CoV-2 [6],did not reduce
same,Lung IFN-1β level,SARS-CoV-2 [6]; listed as vandetanib,restored the levels; also recorded: rescued
same,Lung IL-6 level,SARS-CoV-2 [6]; listed as vandetanib,reduces
same,Lung IL-10 level,SARS-CoV-2 [6]; listed as vandetanib,reduces
same,Lung TNF-α level,SARS-CoV-2 [6]; listed as vandetanib,reduces
same,Lung pathology / inflammatory cell infiltrates,SARS-CoV-2 [6]; listed as vandetanib,clear protective effect; also recorded: significant treatment effect with mild infiltration
same,"Lung viral load (viral RNA, RT-PCR)",SARS-CoV-2 [6]; listed as vandetanib,no significant reduction; also recorded: not observed
same,IC50,SARS-CoV-2 [3],790 nM
CC(=O)c1c(C)c2cnc(Nc3ccc(N4CCNCC4)cn3)nc2n(C2CCCC2)c1=O [Palbociclib],inhibition at 10 µM,"[1]; Murine coronavirus, DBT cells",5%
COc1cc2nccc(Oc3ccc(NC(=O)C4(C(=O)Nc5ccc(F)cc5)CC4)cc3)c2cc1OC [Cabozantinib],inhibition at 10 µM,"[1]; Murine coronavirus, DBT cells",61%
CN(C)C/C=C/C(=O)Nc1cc2c(Nc3ccc(F)c(Cl)c3)ncnc2cc1O[C@H]1CCOC1 [Afatinib],inhibition at 10 µM,"[1]; Murine coronavirus, DBT cells",98%
CNC(=O)c1cc(Oc2ccc(NC(=O)Nc3ccc(Cl)c(C(F)(F)F)c3)c(F)c2)ccn1 [Regorafenib],inhibition at 10 µM,"[1]; Murine coronavirus, DBT cells",65%
CO[C@H]1C[C@@H]2CC[C@@H](C)[C@@](O)(O2)C(=O)C(=O)N2CCCC[C@H]2C(=O)O[C@H]([C@H](C)C[C@@H]2CC[C@@H](OCCO)[C@H](OC)C2)CC(=O)[C@H](C)/C=C(\C)[C@@H](O)[C@@H](OC)C(=O)[C@H](C)C[C@H](C)/C=C/C=C/C=C/1C [Everolimus],inhibition at 10 µM,"[1]; Murine coronavirus, DBT cells",46%
Cc1cn(-c2cc(NC(=O)c3ccc(C)c(Nc4nccc(-c5cccnc5)n4)c3)cc(C(F)(F)F)c2)cn1 [Nilotinib],inhibition at 10 µM,"[1]; Murine coronavirus, DBT cells",66%
Cc1ccc(Nc2nccc(N(C)c3ccc4c(C)n(C)nc4c3)n2)cc1S(N)(=O)=O [Pazopanib],inhibition at 10 µM,"[1]; Murine coronavirus, DBT cells",20%
COc1cc2nccc(Oc3ccc(NC(=O)Nc4cc(C)on4)c(Cl)c3)c2cc1OC [Tivozanib],inhibition at 10 µM,"[1]; Murine coronavirus, DBT cells",29%
C#Cc1cccc(Nc2ncnc3cc(OCCOC)c(OCCOC)cc23)c1 [Erlotinib],inhibition at 10 µM,"[1]; Murine coronavirus, DBT cells",32%
CO[C@H]1C[C@@H]2CC[C@@H](C)[C@@](O)(O2)C(=O)C(=O)N2CCCC[C@H]2C(=O)O[C@H]([C@H](C)C[C@@H]2CC[C@@H](OC(=O)C(C)(CO)CO)[C@H](OC)C2)CC(=O)[C@H](C)/C=C(\C)[C@@H](O)[C@@H](OC)C(=O)[C@H](C)C[C@H](C)/C=C/C=C/C=C/1C [Temsirolimus],inhibition at 10 µM,"[1]; Murine coronavirus, DBT cells",4%
N#CC[C@H](C1CCCC1)n1cc(-c2ncnc3[nH]ccc23)cn1 [Ruxolitinib],inhibition at 10 µM,"[1]; Murine coronavirus, DBT cells",-46%
CCN(CC)CCNC(=O)c1c(C)[nH]c(/C=C2\C(=O)Nc3ccc(F)cc32)c1C [Sunitinib],inhibition at 10 µM,"[1]; Murine coronavirus, DBT cells",96%
C=CC(=O)Nc1cc(Nc2nccc(-c3cn(C)c4ccccc34)n2)c(OC)cc1N(C)CCN(C)C [Osimertinib],inhibition at 10 µM,"[1]; Murine coronavirus, DBT cells",98%
CN1CCN(c2ccc(C(=O)Nc3n[nH]c4ccc(Cc5cc(F)cc(F)c5)cc34)c(NC3CCOCC3)c2)CC1 [Entrectinib],inhibition at 10 µM,"[1]; Murine coronavirus, DBT cells",97%
same,Reduction of HCoV-229E titer,HCoV 229E,2.7 logTCID50/mL
same,CC50,[5],3600 nM
same,IC50,SARS-CoV-2 [3],1970 nM
Cc1ncc(NC(=O)c2ccc(CN3CCN(C)CC3)c(C(F)(F)F)c2)cc1Nc1nccc(-c2cccnc2)n1 [Flumatinib],inhibition at 10 µM,"[1]; Murine coronavirus, DBT cells",83%
CCS(=O)(=O)N1CCN(c2ccc(Nc3ncc(C(N)=O)c(NC4CC4)n3)cc2)CC1 [Cerdulatinib],inhibition at 10 µM,"[1]; Murine coronavirus, DBT cells",78%
CNCc1ccc(-c2[nH]c3cc(F)cc4c3c2CCNC4=O)cc1 [Rucaparib],inhibition at 10 µM,"[1]; Murine coronavirus, DBT cells",-48%
